The source of these data is article PMC8330742, “New benzothieno[2,3-c]pyridines as non-steroidal CYP17 inhibitors: design, synthesis, anticancer screening, apoptosis induction, and in silico ADME profile studies” (Journal of Enzyme Inhibition and Medicinal Chemistry, 2021).

The test system of one data set is RPMI-8226. In words: NCI-60 SRB screen. Format: cell-based. The following applies: Homo sapiens; single dose 10^−5 M; RPMI-8226, Leukaemia; read-out: Growth inhibition (%).
The test system of the next data set is SR. In words: NCI-60 SRB screen. Particulars: Homo sapiens, single dose 10^−5 M, Leukaemia, read-out: Growth inhibition (%). The class given is cell-based.
In the next data set the test system is SF-539. In words: NCI-60 SRB screen. The class given is cell-based, human. The following applies: Homo sapiens; single dose 10^−5 M; SF-539, CNS cancer; read-out: Growth inhibition (%).
The test system of a further data set is SNB-19. In words: NCI-60 SRB screen. The class given is cell-based. Particulars: Homo sapiens; single dose 10^−5 M; SNB-19, CNS cancer; read-out: Growth inhibition (%).
The test system of another data set is SNB-75. As to the kind of experiment: NCI-60 SRB screen. Particulars: Homo sapiens; single dose 10^−5 M; SNB-75, CNS cancer; read-out: Growth inhibition (%). Format: cell-based, human.
A further data set concerns U251. As to the kind of experiment: NCI-60 SRB screen. The following applies: Homo sapiens, U-251; single dose 10^−5 M; U251, CNS cancer; read-out: Growth inhibition (%). The class given is cell-based, human.
The test system of a further data set is MDA-MB-435. In words: NCI-60 SRB screen. Format: cell-based. Particulars: Homo sapiens, MDA-MB-435, read-out: Growth inhibition (%).
For the next data set, the system named is OVCAR-5. In words: NCI-60 SRB screen. Format: cell-based, human. The following applies: Homo sapiens; single dose 10^−5 M; OVCAR-5, Ovarian cancer; read-out: Growth inhibition (%).
For another data set, the system named is A498. In words: NCI-60 SRB screen. Particulars: Homo sapiens; single dose 10^−5 M; A498, Renal cancer; read-out: Growth inhibition (%). The class given is cell-based, human.
Another data set has as its system PC-3. In words: NCI-60 SRB screen. The class given is cell-based, human. The following applies: Homo sapiens; single dose 10^−5 M; PC-3, Prostate cancer; read-out: Growth inhibition (%).
The next data set relates to DU-145. As to the kind of experiment: NCI-60 SRB screen. Format: cell-based, human. The following applies: Homo sapiens; single dose 10^−5 M; DU-145, Prostate cancer; read-out: Growth inhibition (%).
For a further data set, the system named is MCF7. As to the kind of experiment: NCI-60 SRB screen. The class given is cell-based, human. The following applies: Homo sapiens, single dose 10^−5 M, MCF-7, Breast cancer, read-out: Growth inhibition (%).
The test system of the next data set is MDA-MB-231/ATCC. As to the kind of experiment: NCI-60 SRB screen. The class given is cell-based, human. The following applies: Homo sapiens; single dose 10^−5 M; MDA-MB 231/ATCC, Breast cancer; read-out: Growth inhibition (%).
The test system of another data set is BT-549. As to the kind of experiment: NCI-60 SRB screen. The class given is cell-based, human. The following applies: Homo sapiens; single dose 10^−5 M; BT-549, Breast cancer; read-out: Growth inhibition (%).
The next data set relates to T-47D. In words: NCI-60 SRB screen. The class given is cell-based, human. Particulars: Homo sapiens, T47D, single dose 10^−5 M, Breast cancer, read-out: Growth inhibition (%).
The next data set relates to MDA-MB-468. As to the kind of experiment: NCI-60 SRB screen. Particulars: Homo sapiens; single dose 10^−5 M; MDA-MB-468, Breast cancer; read-out: Growth inhibition (%). The class given is cell-based, human.

For orientation: inhibition means the change of the read-out against control, counted positive when it falls. For orientation: melting point means the temperature, or range, at which the solid turns liquid. Compound `O=[N+]([O-])c1cccc(C2NC(N3CCOCC3)=C(Cl)c3c2sc2c(F)cccc32)c1` (stereo not drawn) [Compound 8b, 4-Chloro-3-(4-morpholino)-8-fluoro-1-(3-nitrophenyl)-1,2-dihydro [1]benzothieno[2,3-c]pyridine] yielded a melting point of 175 to 177 °C. In addition, the inhibition at 10 µM in the data set with RPMI-8226 turned out to be 16.2%. Also, the inhibition at 10 µM in the data set on SR came to 20.4%. In the data set on SF-539, the inhibition at 10 µM stood at 6.36%. The inhibition at 10 µM in the data set with SNB-19 worked out at 1.4%. In addition, the inhibition at 10 µM with SNB-75 turned out to be 10.4%. In the data set with U251, the inhibition at 10 µM came to 6.85%. Further, the inhibition at 10 µM in the data set with MDA-MB-435 is -2.51%. For the same compound, in the data set on OVCAR-5, the inhibition at 10 µM was found to be 8.49%. In the data set on A498, the inhibition at 10 µM was 10.4%. Besides, the inhibition at 10 µM in the data set on PC-3 came out at 14.5%. For the same compound, in the data set with DU-145, the inhibition at 10 µM was -1.71%. Moreover, the inhibition at 10 µM with MCF7 stood at 21%. In addition, in the data set on MDA-MB-231/ATCC, the inhibition at 10 µM was 18.8%. The inhibition at 10 µM in the data set on BT-549 stood at 4.09%. The inhibition at 10 µM with T-47D worked out at 20.8%. Also, the inhibition at 10 µM with MDA-MB-468 turned out to be 1.73%.
For `N#CC1=C(N2CCCCC2)NC(c2cccc([N+](=O)[O-])c2)c2sc3c(F)cccc3c21` (stereo not drawn) [Compound 8f, 4-Cyano-3-(piperidin-1-yl)-8-fluoro-1-(3-nitrophenyl)-1,2-dihydro [1]benzothieno[2,3-c]pyridine], the melting point is 280 to 282 °C. Also, the inhibition at 10 µM in the data set on RPMI-8226 came to 14.9%. Moreover, in the data set on SR, the inhibition at 10 µM came to 11.1%. Besides, in the data set on SF-539, the inhibition at 10 µM turned out to be 6.49%. Also, the inhibition at 10 µM in the data set with SNB-19 came out at 1.38%. Further, the inhibition at 10 µM in the data set on SNB-75 turned out to be 5.45%. In addition, the inhibition at 10 µM in the data set on U251 was -6.11%. Moreover, the inhibition at 10 µM with MDA-MB-435 is -6.93%. For the same compound, the inhibition at 10 µM with OVCAR-5 stood at 5.19%. In addition, in the data set with A498, the inhibition at 10 µM is -0.87%. Also, in the data set with PC-3, the inhibition at 10 µM is 8.87%. Moreover, the inhibition at 10 µM with DU-145 was -8.32%. The inhibition at 10 µM in the data set on MCF7 was -0.95%. For the same compound, the inhibition at 10 µM in the data set on MDA-MB-231/ATCC came out at 15.1%. Further, the inhibition at 10 µM in the data set with BT-549 was found to be 1.03%. Further, the inhibition at 10 µM in the data set on T-47D worked out at 2.45%. Besides, the inhibition at 10 µM in the data set on MDA-MB-468 is -8.03%.
Take `O=[N+]([O-])c1cccc(C2NC3=C(Nc4ccccc4N3)c3c2sc2c(F)cccc32)c1` (stereo not drawn) [Compound 9, 9-Fluoro-7-(3-nitrophenyl)-5,6,7,13-tetrahydro[1]benzothieno[3′,2′:4,5]-pyrido[2,3-b]quinoxaline]: the melting point was 160 to 162 °C. In the data set with RPMI-8226, the inhibition at 10 µM turned out to be 12.1%. Further, in the data set with SR, the inhibition at 10 µM amounted to 16.5%. The inhibition at 10 µM in the data set with SF-539 stood at 3.93%. For the same compound, the inhibition at 10 µM in the data set with SNB-19 was -0.03%. Besides, in the data set on SNB-75, the inhibition at 10 µM is 10.2%. Also, the inhibition at 10 µM with U251 is -3.59%. Moreover, the inhibition at 10 µM in the data set with MDA-MB-435 was -7%. The inhibition at 10 µM in the data set on OVCAR-5 is 3.15%. For the same compound, in the data set on A498, the inhibition at 10 µM is -0.12%. For the same compound, the inhibition at 10 µM with PC-3 was found to be 7.47%. Also, in the data set on DU-145, the inhibition at 10 µM was -11.4%. In the data set with MCF7, the inhibition at 10 µM was found to be 1.91%. Besides, the inhibition at 10 µM in the data set on MDA-MB-231/ATCC worked out at 17.8%. The inhibition at 10 µM in the data set with BT-549 amounted to 5.02%. Moreover, the inhibition at 10 µM in the data set on T-47D is -5.91%. Besides, the inhibition at 10 µM in the data set on MDA-MB-468 is -10.6%.
